From patent publication US20150258139A1, “METHODS FOR TREATMENT OF CANCER USING LIPOPLATIN” (REGULON, INC., priority 2012, published 2015)
Several values for one entry are separate records, joined by “and”; a condition that tells them apart may be missing. Equal values may be shown once. Read-outs that look alike come from different tables or passages of the source.

Assays:
F98 glioma tumor [1] = assay type: in vivo; conditions: drug alone
F98 glioma tumor [2] = assay: Mean survival time of F98 glioma bearing Fischer rats, platinum drugs combined with Gamma Knife irradiation; assay type: in vivo
F98 glioma tumor [3] = test system: F98 glioma tumor
[4] = test system: metastatic colorectal cancer; conditions: cited from earlier work
pancreatic cancer = conditions: gemcitabine alone; cited from earlier work
[5] = test system: Nonmetastatic Castrate-Resistant Prostate Cancer; conditions: monotherapy (Ogita et al); cited from earlier work
[6] = IA + BBBD, 24 h after administration, ± SD
[7] = IA + BBBD, 24 h after administration, ± SD, listed as carboplatin
[8] = IA, 24 h after administration, ± SD
[9] = IA, 24 h after administration, ± SD, listed as carboplatin
[10] = IV, 24 h after administration, ± SD

N.N.O=C([O-])C1(C(=O)[O-])CCC1.[Pt+2] [Carboplatin]
mean survival time (F98 glioma tumor [1]; IA + opening BBB): 33.7 ± 2.0 days
mean survival time (F98 glioma tumor [1]; IA, sham group 22.5±0.6 days): 31.0 ± 3.6 days
mean survival time (F98 glioma tumor [1]; IV, sham group 22.6±1.2 days): did not significantly increase
mean survival time (F98 glioma tumor [2]; IA + opening of BBB + radiation 15 Gy, sham group+IR 34.5±2.2 days): 38.0 ± 6.4 days
increase of mean survival time compared to the sham IR group (F98 glioma tumor [2]; IA + radiation 15 Gy): 10.7 days
mean survival time (F98 glioma tumor [2]; IA + radiation 15 Gy, sham group+IR 34.0±6.1 days): 44.7 ± 6.1 days
increase of accumulation in cytoplasm of tumor cells by opening of the BBB (F98 glioma tumor [3]; IA + BBBD vs IA): 4.7 fold
increase of accumulation in nucleus of tumor cells by opening of the BBB (F98 glioma tumor [3]; IA + BBBD vs IA): 18 fold
Platinum in brain tumor (F98 glioma tumor [3]; [6]): 987 ± 621 ng of platin/g tissue
Platinum in cytoplasm of tumor cells (F98 glioma tumor [3]; [6]): 398 ± 191 ng of platin/g tissue
Platinum in healthy contra lateral brain (F98 glioma tumor [3]; [6]): 242 ± 59 ng of platin/g tissue
Platinum in nucleus of tumor cells (F98 glioma tumor [3]; [6]): 160 ± 85 ng of platin/g tissue
Platinum in cytoplasm of tumor cells (F98 glioma tumor [3]; [7]): 398±191 ng of platin/g tissue
Platinum in nucleus of tumor cells (F98 glioma tumor [3]; [7]): 160±85 ng of platin/g tissue
effect of the IA route on tumor uptake and specificity (F98 glioma tumor [3]; IA vs IV, tumor vs contra lateral brain): improved both the tumor uptake and specificity
Platinum in brain tumor (F98 glioma tumor [3]; [8]): 469 ± 241 ng of platin/g tissue
Platinum in cytoplasm of tumor cells (F98 glioma tumor [3]; [8]): 84 ± 61 ng of platin/g tissue
Platinum in healthy contra lateral brain (F98 glioma tumor [3]; [8]): 70 ± 48 ng of platin/g tissue
Platinum in nucleus of tumor cells (F98 glioma tumor [3]; [8]): 9 ± 7 ng of platin/g tissue
Platinum in cytoplasm of tumor cells (F98 glioma tumor [3]; [9]): 84±61 ng of platin/g tissue
Platinum in nucleus of tumor cells (F98 glioma tumor [3]; [9]): 9±7 ng of platin/g tissue
uptake in the nucleus of cancer cells (F98 glioma tumor [3]; IV route): ~4 ng platinum/g tissue
Platinum in brain tumor (F98 glioma tumor [3]; [10]): 145 ± 27 ng of platin/g tissue
Platinum in cytoplasm of tumor cells (F98 glioma tumor [3]; [10]): 13 ± 4 ng of platin/g tissue
Platinum in healthy contra lateral brain (F98 glioma tumor [3]; [10]): 27 ± 2 ng of platin/g tissue
Platinum in nucleus of tumor cells (F98 glioma tumor [3]; [10]): 0.5 ± 0.8 ng of platin/g tissue

N.N.[Cl][Pt][Cl] [Cisplatin]
mean survival time (F98 glioma tumor [1]; IA, sham group 22.5±0.6 days): 13.3 ± 0.1 days
mean survival time (F98 glioma tumor [1]; IV, sham group 22.6±1.2 days): 18.1 ± 0.9 days
Platinum in cytoplasm of tumor cells (F98 glioma tumor [3]; rat, in vivo, iv): 251 ± 48 ng of platin/g tissue
Platinum in nucleus of tumor cells (F98 glioma tumor [3]; rat, in vivo, iv): 67 ± 14 ng of platin/g tissue
uptake in the nucleus of cancer cells (F98 glioma tumor [3]; rat, in vivo, iv): 67±14 ng platinum/g tissue

O=C1[O][Pt]2([NH][C@@H]3CCCC[C@H]3[NH]2)[O]C1=O [Oxaliplatin]
mean survival time (F98 glioma tumor [1]; IA, sham group 22.5±0.6 days): 22.0 ± 4.7 days
mean survival time (F98 glioma tumor [1]; IV, sham group 22.6±1.2 days): did not significantly increase
uptake in the nucleus of cancer cells (F98 glioma tumor [3]; IV route): 78±8 ng platinum/g tissue
Platinum in cytoplasm of tumor cells (F98 glioma tumor [3]; [10]): 292 ± 128 ng of platin/g tissue
Platinum in nucleus of tumor cells (F98 glioma tumor [3]; [10]): 78 ± 8 ng of platin/g tissue
objective responses, % of patients ([4]; 2 small trials of first-line monotherapy (Wiseman et al)): 20% and 24%
response rate ([4]; first line monotherapy, metastatic colorectal cancer patients): 24%
objective responses, % of patients ([4]; monotherapy as second-line option (Wiseman et al)): about 10%
overall response rate ([4]; monotherapy, second line, colorectal cancer, Japanese study (Boku et al)): 9%

Nc1ccn([C@@H]2O[C@H](CO)[C@@H](O)C2(F)F)c(=O)n1 [gemcitabine]
one-year survival (pancreatic cancer): 17%

Avastin®: humanized monoclonal antibody that binds to and inhibits human vascular endothelial growth factor (VEGF)
efficacy [5]: marginal efficacy
